The text below walks through data of US11492618B2, “Expression control using a regulatable intron” (ASKLEPIOS BIOPHARMACEUTICAL, INC., priority 2017, dated 2022).

The test system of data set [1] is HEK293F cells. In words: EGFP expression from ATF6 constructs induced by wtAAV production. Type of data set: cell-based, human. The method, then:
In this experiment transfections were carried out in 24-well plates as previously described. The ATF6 plasmids (SYNP-ATF6-01 and SYNP-ATF6-02 constructs in the pMA-RQ vector) were transfected into HEK293F cells (using MAX reagent, as above) and after 24 hrs GFP was measured. After GFP measurement the same cells were transfected with the plasmids for wtAAV production pGRG25AAV2 (provided by Adrien Savvy) and pHelper plasmid from Takara/Clonetech in a 1:1 ratio. EGFP fluorescence was then measured after 1, 3, 5 and 24 hrs (FIGS. 7 and 8—not all data is shown). Both plasmids are required for wtAAV production, with the pGRG25AAV2 providing the wtAAV2 genome and the pHelper plasmid providing the E2, VA and E4 helper functions required for virus replication.
This confirmed successful AAV expression. Zs green is a variant of eGFP and as such GFP measurement was carried out on these cells as previously described.

For data set [2], the system named is HEK293F cells. In words: EGFP expression from 6xATF6 promoter constructs with and without XBP1 intron after 2 mM DTT. In kind it is cell-based, human. The procedure:
For this study two constructs were prepared: • 1) 6×ATF6 elements (having the sequence TGACGTGCT) upstream of the CMV-minimal promoter (CMV-MP) and EGFP; this construct was named SYNP-ATF6-01 (see below, SEQ ID NO: 30). • 2) 6×ATF6 elements upstream of the CMV-MP and EGFP with XBP1 intron insertion; this construct was named SYNP-ATF6-02 (see below, SEQ ID NO: 31).
HEK293F cells were used in this study. All growth conditions, transfections and analyses were carried out as described in Example 1.
24 well transfections were set-up as described above. Each condition was performed in duplicate/triplicate. 24 hrs after transfection the cells were treated with either 2 mM DTT, to induce the UPR, or by mock treatment with an equivalent volume of water. 1, 3, 5 and 24 hrs after treatment of the cells GFP fluorescence was measured as previously described.
The ratio of GFP fluorescence to the control plasmid was calculated before and after induction.

Regarding “SYNP-ATF6-02: 6×ATF6 elements upstream of the CMV-MP and EGFP with XBP1 intron insertion (SEQ ID NO: 31)”, the “background level of EGFP before wtAAV production” value with HEK293F cells [1] is reported as “zero”. Also, in the data set on HEK293F cells [2] (2 mM DTT, 3 independent experiments), the “GFP expression after induction, ratio to CMV-IE” value is given as 4 times the level of CMV-IE. For the same substance, the “background level of GFP fluorescence” value in the data set on HEK293F cells [2] (before DTT, raw data) is recorded as “practically zero”.
